Read-outs that look alike come from different tables or passages of the source. No end group written: not given here.
Experiments:
[1] = tested on: cleaved caspase-3; assay: Western blot cleaved caspase-3 in infarct zone; assay type: in vivo, mouse; settings: ZI one day after MI, BNP vs saline
Source text: At sacrifice, mice were weighted, the heart excised and weighted. The apex was embedded into OCT and slowly frozen for immunohistochemistry analysis. For quantitative RT-PCR (qRT-PCR) and/or Western blot analysis, the rest of the heart was quickly frozen in N2. Hearts from infarcted animals were separated into 3 zones for molecular and cellular analysis including CM isolation: (1) the infarction zone (ZI), (2) the border zone (BZ) and (3) the remote zone (RZ). The different areas were processed under microscopy: the ZI area is easily detectable by the color and the presence of the suture, the BZ corresponds to 0.5 mm tissue around the ZI and the rest of the heart is the RZ.
(§1) Total proteins were extracted from CMs isolated from adult infarcted and unmanipulated neonatal and adult hearts. Proteins were transferred to nitrocellulose membranes (Biorad) before incubation with primary antibodies overnight at 4 °C. Secondary antibodies were added 1 h at RT in the dark (Supplementary File S1). The signal was detected and quantified with the Odyssey infrared imaging system (LI-COR. Biosciences, Bad Homburg, Germany). All results were normalized to the tubulin protein level or to the total protein level thanks to stainings with the Revert 700 Total protein Stain (LI-COR).

[2] = tested on: adult CMs; assay: Adult CM culture 7 days with BNP; assay type: cell-based, mouse; settings: 10 nM BNP, 7 days of culture
Procedure: (§2) CM isolations were performed thanks to the Langendorff-Free method. […] Thereafter, the heart was removed from the chest and the left ventricle was perfused with enzymatic solution containing collagenase II (120 U/mL), collagenase IV (120 U/mL) (Worthington, Biochemical Corporation, USA) and protease XIV (0.05 mg/mL or 0.175 U/mL) (Sigma-Aldrich, Merck, Darmstadt, Germany). In each experiment, a full digestion of the heart was obtained. After digestion, cardiac cells were dissociated by gentle pipetting, filtered and collected after 25 min sedimentation. For infarcted hearts, the tissue was separated into the three zones (ZI, BZ and RZ). The three different areas were weighted before gentle pipetting.
qRT-PCR were performed using the SYBR Premix Ex Taq polymerase (Takara Bio Inc., Shiga, Japan) with the ViiA^TM7 Instrument (Applied Biosystems, Waltham, MA, USA). Total RNA was isolated from heart tissue, CM cell cultures and isolated CMs using TRI-Reagent (Zymo Research, Orange County, CA, USA). cDNA was synthesized from RNA using PrimeScript RT reagent kit (Takara Bio Inc.). Polymerase chain reactions (PCR) were performed using the SYBR Premix Ex Taq polymerase (Takara Bio Inc.) with the ViiA^TM7 Instrument (Applied Biosystems). Results were obtained after 40 cycles of a thermal step protocol consisting of an initial denaturation of 95 °C (1 s), followed by 60 °C (20 s) of elongation (α-skeletal actin has an elongation time of 30 s at 60 °C). The sequences of primers were reported in Supplementary File S2. All results were normalized with the 18S housekeeping gene (Δ CT values). Means of ΔΔ CT (Δ CTBNP–Δ CTsaline) values (versus untreated cells or NaCl treated mice) were calculated and results were represented as 2^−ΔΔCT. Statistics were performed on ΔΔ CT individual values. SEM fold increase was calculated using 2^−ΔΔ CT high values − 2^−means of ΔΔCT [13].

[3] = tested on: caspase 3+ CMs; assay: Immunostaining of caspase 3+ CMs in infarcted area; assay type: in vivo, mouse; settings: infarcted area 1 day after MI, BNP vs saline
Procedure: Cells or OCT heart sections (5 µm-thick cryosections) were washed in PBS 1X and fixed in paraformaldehyde (2%) or formol (4%) for 10 min at RT. After 10 min of permeabilization (0.3% Triton x-100 in PBS) and one hour of blocking with normal serum, sections were probed with primary antibodies overnight at 4 °C (Supplementary File S1). The second day, the secondary antibody was added on cells or heart sections. Slides were mounted with Dabco (Sigma) and pictures were captured with Nikon Eclipse TS100 or 90i microscope. Images were processed with Adobe Photoshop CC2015.

[4] = tested on: p38; assay: Western blot pp38/p38 in adult CMs stimulated in vitro; assay type: cell-based, mouse; settings: adult CMs stimulated with BNP for 2–3 h in vitro, vs untreated
Procedure: as §2, §1

[5] = tested on: Nkx2.5+ myocytes; settings: cited from earlier work
[6] = rats with myocardial damage; cited from earlier work

Brain Natriuretic Peptide (SQGSTLRVQQRPQNSKVTHISSCFGHKIDRIGSVSRLGCNALKLL; not fully specified; ends and bridges not checked; UniProt P40753 77-121, looked up) [BNP, synthetic mouse BNP (1–45) peptide (Bachem, catalog number H-7558)]
caspase 3 protein level change [1]: −42% | Aurkb+ Troponin I+ CMs in culture [2]: detected only in BNP-treated cell cultures | anf mRNA increase ([2]; vs untreated): 70% | cyclin E1 mRNA increase ([2]; vs untreated): 56% | dab2 mRNA increase ([2]; vs untreated): 52% | runx1 mRNA increase ([2]; vs untreated): 62% | number of caspase 3+ CMs change [3]: −13% | pp38/p38 ratio [4]: did not change | increase in Nkx2.5+ myocytes ([5]; adult BNP-treated hearts): 68% | increase in Nkx2.5+ myocytes ([5]; neonatal BNP-treated hearts): 22.5% | half-life [6]: about 1.2 min
